Assay results published in the CheMixHub viscosity set.
“And” between values parts separate entries of the source, which are not always exact repeats. Equal entries are not always repeated.

Assay: xn = mol fraction of the nth substance listed

CCCCN + C1COCCO1
298.15 K, 101 kPa
Conditions | viscosity [mPa·s]
x1 = 0.05 | 1.094
x1 = 0.1 | 1.019
x1 = 0.1005 | 1.018
x1 = 0.15 | 0.953
x1 = 0.2 | 0.896
x1 = 0.2025 | 0.893
x1 = 0.25 | 0.846
x1 = 0.2973 | 0.806
x1 = 0.3 | 0.801
x1 = 0.35 | 0.761
x1 = 0.3935 | 0.726
x1 = 0.4 | 0.725
x1 = 0.45 | 0.692
x1 = 0.4987 | 0.665
x1 = 0.5 | 0.662
x1 = 0.55 | 0.634
x1 = 0.5971 | 0.609
x1 = 0.6 | 0.609
x1 = 0.65 | 0.585
x1 = 0.6965 | 0.566
x1 = 0.7 | 0.564
x1 = 0.75 | 0.545
x1 = 0.7959 | 0.529
x1 = 0.8 | 0.528
x1 = 0.85 | 0.512
x1 = 0.9 | 0.498
x1 = 0.9041 | 0.497
x1 = 0.95 | 0.486

CCCCN + CCCCCCCCO
viscosity [mPa·s], 101.33 kPa
Conditions | 303.15 K | 313.15 K | 323.15 K
x1 = 0.094 | 5.27 | 3.765 | –
x1 = 0.1 | 5.075 | 3.779 | 2.828
x1 = 0.1949 | 4.391 | 3.129 | –
x1 = 0.2011 | 4.061 | 3.065 | 2.358
x1 = 0.288 | 3.626 | 2.585 | –
x1 = 0.3 | 3.239 | 2.487 | 1.942
x1 = 0.4015 | 2.547 | 1.984 | 1.576
x1 = 0.4199 | 2.665 | 1.929 | –
x1 = 0.5003 | 1.995 | 1.59 | 1.289
x1 = 0.5164 | 2.065 | 1.521 | –
x1 = 0.6002 | 1.528 | 1.235 | 1.021
x1 = 0.619 | 1.523 | 1.154 | –
x1 = 0.7003 | 1.141 | 0.945 | 0.791
x1 = 0.7192 | 1.103 | 0.8639 | –
x1 = 0.7998 | 0.847 | 0.716 | 0.614
x1 = 0.8084 | 0.8208 | 0.6658 | –
x1 = 0.9 | 0.623 | 0.537 | 0.466
x1 = 0.9064 | 0.5902 | 0.5049 | –

Cc1ccncc1 + CC(C)O
298.15 K, 101.33 kPa
Conditions | viscosity [mPa·s]
x2 = 0.0886 | 0.8731
x2 = 0.1711 | 0.8916
x2 = 0.2569 | 0.9174
x2 = 0.4424 | 0.9998
x2 = 0.5207 | 1.048
x2 = 0.6685 | 1.181
x2 = 0.8095 | 1.405
x2 = 0.8831 | 1.599

O=C(O)C(Cl)(Cl)Cl + CCOC(=O)c1ccccc1
298.15 K, 101 kPa
Conditions | viscosity [mPa·s]
x1 = 0.08874 | 2.324
x1 = 0.2096 | 2.93
x1 = 0.3125 | 3.711
x1 = 0.3982 | 4.61
x1 = 0.4907 | 5.848
x1 = 0.5795 | 7.068
x1 = 0.6758 | 8.374

CN + CS(C)=O
303.15 K, 101 kPa
Conditions | viscosity [mPa·s]
x2 = 0.0607 | 1.738
x2 = 0.12 | 1.823
x2 = 0.2348 | 1.891
x2 = 0.4501 | 2.172
x2 = 0.6481 | 2.077
x2 = 0.8308 | 1.895

Cc1ccncc1 + CO
298.15 K, 101.33 kPa
Conditions | viscosity [mPa·s]
x2 = 0.1671 | 0.8666
x2 = 0.3035 | 0.8547
x2 = 0.4194 | 0.8291
x2 = 0.5171 | 0.8161
x2 = 0.6328 | 0.7764
x2 = 0.7977 | 0.7033
x2 = 0.8892 | 0.6526
x2 = 0.967 | 0.5799

O=S(=O)([O-])[O-].[K+].[K+] + O
Conditions | viscosity
293.65 K, 100 kPa, x1 = 0.008033 | 1.089 mPa·s
294.15 K, 100 kPa, x1 = 0.005375 | 1.042 mPa·s
294.15 K, 100 kPa, x1 = 0.01069 | 1.109 mPa·s and 1.108 mPa·s
298.15 K, 100 kPa, x1 = 5e-05 | 0.8905 mPa·s
298.15 K, 100 kPa, x1 = 0.0001 | 0.891 mPa·s
298.15 K, 100 kPa, x1 = 0.00021 | 0.892 mPa·s
298.15 K, 100 kPa, x1 = 0.00031 | 0.893 mPa·s
298.15 K, 100 kPa, x1 = 0.00104 | 0.9247 mPa·s
298.15 K, 101 kPa, x1 = 0.00655 | 0.966 mPa·s
298.15 K, 101 kPa, x1 = 0.01242 | 1.039 mPa·s
303.15 K, 101 kPa, x1 = 0.01242 | 0.9548 mPa·s
308.15 K, 100 kPa, x1 = 5e-05 | 0.7195 mPa·s
308.15 K, 100 kPa, x1 = 0.0001 | 0.72 mPa·s
308.15 K, 100 kPa, x1 = 0.00021 | 0.721 mPa·s
308.15 K, 100 kPa, x1 = 0.00031 | 0.722 mPa·s
308.15 K, 100 kPa, x1 = 0.00104 | 0.7509 mPa·s
308.15 K, 101 kPa, x1 = 0.01242 | 0.8705 mPa·s
313.15 K, 101 kPa, x1 = 0.01242 | 0.7905 mPa·s
318.15 K, 101 kPa, x1 = 0.01242 | 0.7249 mPa·s
323.15 K, 101 kPa, x1 = 0.00318 | 0.576 mPa·s
323.15 K, 101 kPa, x1 = 0.00655 | 0.603 mPa·s
323.15 K, 101 kPa, x1 = 0.0113 | 0.645 mPa·s

CCCCN + CCOC(C)=O
303.15 K, 101 kPa
Conditions | viscosity [mPa·s]
x1 = 0.1573 | 0.4484
x1 = 0.2361 | 0.4671
x1 = 0.312 | 0.4741
x1 = 0.4217 | 0.4759
x1 = 0.5671 | 0.476
x1 = 0.6505 | 0.4772
x1 = 0.7907 | 0.4779
x1 = 0.8803 | 0.4928

CCCC(=O)OCC + C1CCCCC1
viscosity [mPa·s], 101 kPa
Conditions | 298.15 K | 308.15 K
x1 = 0.0551 | 0.852 | 0.72
x1 = 0.1552 | 0.796 | 0.667
x1 = 0.2554 | 0.75 | 0.626
x1 = 0.3554 | 0.711 | 0.594
x1 = 0.4504 | 0.682 | 0.573
x1 = 0.4992 | 0.669 | 0.564
x1 = 0.5558 | 0.656 | 0.557
x1 = 0.6532 | 0.638 | 0.549
x1 = 0.7547 | 0.624 | 0.548
x1 = 0.8532 | 0.616 | 0.554
x1 = 0.9564 | 0.613 | 0.568

O=C(O)C(Cl)(Cl)Cl + CC(C)=O
viscosity [mPa·s], 101 kPa
Conditions | 298.15 K | 308.15 K | 318.15 K
x1 = 0.0484 | 0.368 | – | –
x1 = 0.1316 | 0.4855 | – | –
x1 = 0.165 | – | 0.5039 | 0.453
x1 = 0.2517 | – | 0.6893 | 0.6078
x1 = 0.2543 | 0.8156 | – | –
x1 = 0.3485 | – | 1.01 | 0.8833
x1 = 0.3826 | 1.433 | – | –
x1 = 0.4411 | – | 1.508 | 1.273
x1 = 0.5048 | 2.571 | – | –
x1 = 0.5537 | – | 2.424 | 1.967
x1 = 0.5971 | 3.829 | – | –
x1 = 0.6808 | – | 3.725 | 2.922
x1 = 0.7175 | 5.808 | – | –
x1 = 0.7475 | – | 4.527 | 3.504
x1 = 0.8521 | – | 5.855 | 4.441
x1 = 0.9183 | – | – | 5.024
